The results in this text go back to ChEMBL document CHEMBL1151554, “Non thiazolidinedione antihyperglycaemic agents. 1: -Heteroatom substituted -phenylpropanoic acids” (Bioorg Med Chem Lett, 1996).

Bounds are passed on as bounds.

One test has as its system Mus musculus. Nature of the test: In vivo inhibition of glucose load induced hyperglycaemia in fasted C57B1/6 ob/ob mice. In kind it is functional.
Test [1] concerns the target T1, Peroxisome proliferator-activated receptor gamma (Homo sapiens, UniProt P37231).
T1 sequence (P37231 whole entry): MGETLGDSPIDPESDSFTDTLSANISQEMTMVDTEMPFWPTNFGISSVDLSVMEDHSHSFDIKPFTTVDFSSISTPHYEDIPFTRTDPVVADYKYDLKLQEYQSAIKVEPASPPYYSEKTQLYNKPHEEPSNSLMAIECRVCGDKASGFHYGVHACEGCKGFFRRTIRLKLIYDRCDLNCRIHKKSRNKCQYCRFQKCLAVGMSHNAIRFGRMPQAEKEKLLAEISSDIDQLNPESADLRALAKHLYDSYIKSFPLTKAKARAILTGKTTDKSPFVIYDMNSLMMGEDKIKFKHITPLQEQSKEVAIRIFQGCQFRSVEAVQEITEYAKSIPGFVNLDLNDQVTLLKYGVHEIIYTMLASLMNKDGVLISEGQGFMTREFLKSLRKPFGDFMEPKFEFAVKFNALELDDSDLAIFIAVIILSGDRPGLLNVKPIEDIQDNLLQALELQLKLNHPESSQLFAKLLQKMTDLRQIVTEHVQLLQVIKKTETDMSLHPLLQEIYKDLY
Description: inhibition of [125I]SB 236636 binding to human PPAR gamma receptor

Test [2] concerns the target T2, Peroxisome proliferator-activated receptor gamma (Homo sapiens) (UniProt P37231).
T2 sequence (whole entry): T1 sequence (P37231 whole entry)

As to `COC(Cc1ccc(OCCN(C)c2nc3ccccc3o2)cc1)C(=O)O` (stereo unspecified), in the test on Mus musculus, the ED25 was determined as 3 µM/kg.

In the test on Mus musculus, `COC(=O)CCc1ccc(OCCN(C)c2nc3ccccc3o2)cc1` returned an ED25 of more than 2000 µM/kg. With `CN(CCOc1ccc(CC(S)C(=O)O)cc1)c1nc2ccccc2o1` (stereo unspecified), the ED25 with Mus musculus amounted to 300 µM/kg. `COC(=O)C(Cc1ccc(OCCN(C)c2nc3ccccc3o2)cc1)OC(C)C` (stereo unspecified): in the test with Mus musculus, the ED25 was less than 0.3 µM/kg.

The molecule `COC(=O)C(Cc1ccc(OCCN(C)c2nc3ccccc3o2)cc1)Sc1ccccc1` (stereo unspecified) came in with an ED25 in the test on Mus musculus of 30 µM/kg. Turning to `CN(CCOc1ccc(CC(OCc2ccccc2)C(=O)[O-])cc1)c1nc2ccccc2o1.[Na+]` (stereo unspecified), the ED25 with Mus musculus is 0.3 µM/kg.

The molecule `CN(CCOc1ccc(CC(OCCc2ccccc2)C(=O)O)cc1)c1nc2ccccc2o1` (stereo unspecified) came in with an ED25 in the test on Mus musculus of 1 µM/kg. On the same count and under the same terms, for `CNC(Cc1ccc(OCCN(C)c2nc3ccccc3o2)cc1)C(=O)OC` (stereo unspecified) the value was 1000 µM/kg.

As for `CN(CCOc1ccc(CC(Sc2ccccc2)C(=O)O)cc1)c1nc2ccccc2o1` (stereo unspecified), the affinity in test [1], expressed as Ki, was 37 nM. In the test with Mus musculus, the ED25 was 30 µM/kg. The molecule `CN(CCOc1ccc(CC(F)C(=O)O)cc1)c1nc2ccccc2o1` (stereo unspecified) showed an ED25 with Mus musculus of 10 µM/kg. Regarding `COC(=O)C(Br)Cc1ccc(OCCN(C)c2nc3ccccc3o2)cc1` (stereo unspecified), in the test with Mus musculus, the ED25 amounted to 100 µM/kg. Consider `CN(CCOc1ccc(CC(Oc2ccccc2)C(=O)O)cc1)c1nc2ccccc2o1` (stereo unspecified), for which the affinity in test [1] corresponds to a Ki of 0.4 nM. Also, the ED25 in the test with Mus musculus is 1 µM/kg. Take `CN(CCOc1ccc(CC(Cl)C(=O)O)cc1)c1nc2ccccc2o1` (stereo unspecified): in the test on Mus musculus, the ED25 was determined as 10 µM/kg. Same read-out and setting: for `COC(=O)C(Cl)Cc1ccc(OCCN(C)c2nc3ccccc3o2)cc1` (stereo unspecified) the value was 10 µM/kg; for `CN(CCOc1ccc(CC2SC(=O)NC2=O)cc1)c1nc2ccccc2o1` (stereo unspecified) [BRL-48482], 3 µM/kg; for `Cc1c(C)c2c(c(C)c1O)CCC(C)(COc1ccc(CC3SC(=O)NC3=O)cc1)O2` (stereo unspecified) [TROGLITAZONE], 400 µM/kg. For the molecule `CN(CCOc1ccc(CC(C(=O)O)S(=O)(=O)c2ccccc2)cc1)c1nc2ccccc2o1` (stereo unspecified), in the test on Mus musculus, the ED25 amounted to 1000 µM/kg. Still for that read-out and setting: the result for `CN(CCOc1ccc(CC(Nc2ccccc2)C(=O)O)cc1)c1nc2ccccc2o1` (stereo unspecified) reads 30 µM/kg; that for `CCCOC(Cc1ccc(OCCN(C)c2nc3ccccc3o2)cc1)C(=O)[O-].[Na+]` (stereo unspecified), 0.3 µM/kg. In test [2], `COC(=O)C(Cc1ccc(OCCN(C)c2nc3ccccc3o2)cc1)N(C)C` (stereo unspecified) returned a Displacement of 26%. Further, the ED25 in the test on Mus musculus is 1000 µM/kg. Consider `COC(=O)C(Cc1ccc(OCCN(C)c2nc3ccccc3o2)cc1)OC` (stereo unspecified), for which, in the test with Mus musculus, the ED25 was 3 µM/kg. The molecule `COC(=O)C(Cc1ccc(OCCN(C)c2nc3ccccc3o2)cc1)SC` (stereo unspecified) gave an ED25 in the test with Mus musculus of 100 µM/kg. Consider `CCOC(Cc1ccc(OCCN(C)c2nc3ccccc3o2)cc1)C(=O)O` (stereo unspecified), for which the ED25 in the test on Mus musculus came out at 0.1 µM/kg.
